# Experiments:
# Type in all cases: cell-based
# Fusobacterium nucleatum [1] = assay: MIC (minimum inhibitory concentration) study, 96 well microtiter plates; settings: F. nucleatum, 48 hours at 37° C., turbidity at 660 nm
# Method: (§1) In vitro tests were conducted with a gram positive supragingival plaque bacterium, Streptococcus mutans. In addition, two subgingival plaque bacteria associated with oral malodor were tested, Porphyromonas gingivalis and Fusobacterium nucleatum. The MIC (Minimum Inhibitory Concentrations) study protocol is as follows. Chlorhexidine was used as a positive control and sterile water was used as a negative control. Geraniol was suspended in 10% methanol with 3.8% Tween 80. […] 96 well microtiter plates were used for this study. Each well contained 5×10^5 colony forming units/ml of bacteria, serially diluted agents and bacterial growth medium. All bacterial cultures were incubated at 37° C. and stationary. Bacterial growth was estimated spectrophotometrically at 660 nm, after 48 hours. The MIC for each test bacteria was defined as the minimum concentration of test compound limiting turbidity to <absorbance at 660 nm.
# Porphyromonas gingivalis [2] = assay: as above; settings: P. gingivalis, 48 hours at 37° C., turbidity at 660 nm
# Method: as §1
# Fusobacterium nucleatum [3] = assay: MBC (minimum bactericidal concentration) determination, plating on blood agar; settings: F. nucleatum, lowest concentration that killed at least 99.9% of initial inoculum
# Method: as §1, with “[…]. The MBC (Minimum bactericidal concentrations) were determined using the 96 well microtiter plate serial dilutions as described above for MIC studies. Serial dilution of cultures in wells showing no visible growth were performed and 10 microliters of culture were plated in triplicate on blood agar plates. Viable colonies were scored after incubation of the plates for 48 hours at 37° C. For each test bacterium, the number of CFU/ml were determined in the initial inoculum. The MBC was defined as the lowest concentration of a test compound that killed at least 99.9% of the cells present in the initial inoculum.” for “nm.”
# Porphyromonas gingivalis [4] = assay: as above; settings: P. gingivalis, lowest concentration that killed at least 99.9% of initial inoculum
# Method: as §1, with “[…]. The MBC (Minimum bactericidal concentrations) were determined using the 96 well microtiter plate serial dilutions as described above for MIC studies. Serial dilution of cultures in wells showing no visible growth were performed and 10 microliters of culture were plated in triplicate on blood agar plates. Viable colonies were scored after incubation of the plates for 48 hours at 37° C. For each test bacterium, the number of CFU/ml were determined in the initial inoculum. The MBC was defined as the lowest concentration of a test compound that killed at least 99.9% of the cells present in the initial inoculum.” for “nm.”
# Streptococcus mutans [5] = assay: MIC (minimum inhibitory concentration) study, 96 well microtiter plates; settings: S. mutans, 48 hours at 37° C., turbidity at 660 nm
# Method: as §1
# Streptococcus mutans [6] = assay: MBC (minimum bactericidal concentration) determination, plating on blood agar; settings: S. mutans, lowest concentration that killed at least 99.9% of initial inoculum
# Method: as §1, with “[…]. The MBC (Minimum bactericidal concentrations) were determined using the 96 well microtiter plate serial dilutions as described above for MIC studies. Serial dilution of cultures in wells showing no visible growth were performed and 10 microliters of culture were plated in triplicate on blood agar plates. Viable colonies were scored after incubation of the plates for 48 hours at 37° C. For each test bacterium, the number of CFU/ml were determined in the initial inoculum. The MBC was defined as the lowest concentration of a test compound that killed at least 99.9% of the cells present in the initial inoculum.” for “nm.”
MIC (Fusobacterium nucleatum [1]) [µg/mL],MIC (Porphyromonas gingivalis [2]) [µg/mL],MIC (Streptococcus mutans [5]) [µg/mL],SMILES,MBC (Fusobacterium nucleatum [3]) [µg/mL],MBC (Porphyromonas gingivalis [4]) [µg/mL],MBC (Streptococcus mutans [6]) [µg/mL]
1.25,1.25,,"[H]/N=C(\N/C(=N/[H])NCCCCCCNC(=N)NC(=N)Nc1ccc(Cl)cc1)Nc1ccc(Cl)cc1 [Cholorhexidine, Chlorhexidine, reference compound]",1.25,1.25,
125,125,500,CC(C)=CCC/C(C)=C/CO [geraniol],125,125,250

# From US20040253189A1, “Breath Freshening and Oral Cleansing Product Using Geraniol” (priority 2002, published 2004)
